Experimental data: patent US12595222B2, “Curcuminoids, analogs thereof, and methods of making the same” (WiSys Technology Foundation, Inc., priority 2021, dated 2026)

System: Epstein-Barr virus (EBV)
Test: EBV reactivation (viral BZLF1 gene expression) inhibition
Format: cell-based
Details: 3 mM; compared to low expression in unactivated cells
Description: FIG. 20B illustrates EBV reactivation in the presence of the curcuminoids shown in FIG. 28A, measured by increased viral BZLF1 gene expression, is induced with a known reactivating drug, sodium butyrate (3 mM) compared to low expression in unactivated cells, in accordance with various embodiments. EBV reactivation was inhibited by five novel curcuminoids (10 μM).

## CCCC(=O)[O-].[Na+] [sodium butyrate]
  EBV reactivation, measured by increased viral BZLF1 gene expression: induced
